Patent US10144742B2 (Millennium Pharmaceuticals, Inc., priority 2014, dated 2018)
Where two headings read alike, the source gives them in different places.

Columns and labels:
hNAMPT protein = hNAMPT protein (Homo sapiens (Human), UniProt P43490); experiment: NAMPT enzyme assay (TR-FRET/HTRF, BodiPY ligand, anti 6His-Tb); type: binding; conditions: for inhibition at 1 µM: read-out: Percent Inhibition; for IC50: read-out: IC50
Method in brief: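 TR-FRET binding assay in which His-tagged human NAMPT with anti-6His-Tb is displaced by compound from a BodiPY ligand, incubated 1 h at rt in the dark. Excitation was at 320 nm, with the 520/486 nm emission ratio read. IC50 was fitted from inhibition relative to DMSO controls.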

PC3 cells = experiment: PC3 growth inhibition (Cell-titer glo, 72 hours); type: cell-based; conditions: Homo sapiens, PC-3, PC3 cells, 72 hours, Cell-titer glo, read-out: Percent Inhibition (PC3 growth inhibition); for inhibition at 1.667 µM: compound concentration 1.667 μM; for inhibition at 1 µM: compound concentration 1 μM
Method in brief: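 PC3 cells in RPMI1640 seeded overnight at 37 °C, 5% CO2, then exposed to compound diluted in AIM serum-free medium for 72 h. Viability by CellTiter-Glo luminescence vs DMSO controls; single-concentration % remaining viability (1 μM or 1.667 μM), or GI50/LD50 from curves.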

[1] = NAMPT inhibition at compound concentration 1 μM
[2] = NAMPT inhibition, IC50 range class

Chain of hNAMPT protein (P43490 whole entry): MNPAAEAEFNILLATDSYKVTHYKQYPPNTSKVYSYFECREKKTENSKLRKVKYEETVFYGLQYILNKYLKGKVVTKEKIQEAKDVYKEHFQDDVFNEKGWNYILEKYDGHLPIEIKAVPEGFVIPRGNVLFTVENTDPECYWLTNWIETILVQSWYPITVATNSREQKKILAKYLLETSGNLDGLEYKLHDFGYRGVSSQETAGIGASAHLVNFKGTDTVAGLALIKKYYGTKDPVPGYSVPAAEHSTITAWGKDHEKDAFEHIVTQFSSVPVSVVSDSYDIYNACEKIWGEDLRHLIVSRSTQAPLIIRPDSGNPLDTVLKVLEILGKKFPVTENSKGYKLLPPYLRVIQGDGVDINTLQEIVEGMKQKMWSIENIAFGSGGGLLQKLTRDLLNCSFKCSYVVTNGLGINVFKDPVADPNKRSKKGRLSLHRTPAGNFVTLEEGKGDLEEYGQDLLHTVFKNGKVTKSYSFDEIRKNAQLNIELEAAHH

| SMILES | inhibition at 1 µM (hNAMPT protein; [1]) | IC50 (hNAMPT protein; [2]) | inhibition at 1.667 µM (PC3 cells) | IC50 (hNAMPT protein; NAMPT IC50 range class) | inhibition at 1 µM (hNAMPT protein; compound concentration 1 μM) | inhibition at 1 µM (PC3 cells) |
| --- | --- | --- | --- | --- | --- | --- |
| Cc1cccc(-c2nc3cc(C(=O)NCCCc4ncc[nH]4)ccc3nc2-c2ccc(F)cc2)c1 [Compound I-395, 2-(4-fluorophenyl)-N-[3-(1H-imidazol-2-yl)propyl]-3-(3-methylphenyl)quinoxaline-6-carboxamide] | 83% | 100 to 500 nM | 2% | – | – | – |
| O=C(NCCCc1cn[nH]c1)c1ccc2nc(-c3ccc(F)cc3)c(-c3ccc(F)cc3)nc2c1 [Compound I-508, 2,3-bis(4-fluorophenyl)-N-[3-(1H-pyrazol-4-yl)propyl]quinoxaline-6-carboxamide] | 73% | 100 to 500 nM | 3% | – | – | – |
| CC(C)(C)OCc1nc2ccc(C(=O)NCCCc3ncc[nH]3)cc2nc1-c1ccc(F)cc1 [Compound I-341, N-(3-(1H-imidazol-2-yl)propyl)-2-(tert-butoxymethyl)-3-(4-fluorophenyl)quinoxaline-6-carboxamide] | – | – | 1% | 100 to 500 nM | 73% | – |
| CC(C)(C)OC(=O)NC1CCN(C2CCN(c3nc4ccc(C(=O)NCCCn5ccnc5)cc4nc3-c3ccccc3)CC2)CC1 [Compound I-74, tert-Butyl [1′-(6-{[3-(1H-imidazol-1-yl)propyl]carbamoyl}-3-phenylquinoxalin-2-yl)-1,4′-bipiperidin-4-yl]carbamate] | – | – | – | < 100 nM | 100% | -2% |
| O=C(NCCCc1ncc[nH]1)c1ccc2nc(OCC3CC(F)(F)C3)c(-c3ccc(F)cc3)nc2c1 [Compound I-316, 2-[(3,3-difluorocyclobutyl)methoxy]-3-(4-fluorophenyl)-N-[3-(1H-imidazol-2-yl)propyl]quinoxaline-6-carboxamide] | – | – | 2% | < 100 nM | 98% | – |
| CC(=O)Nc1ccccc1-c1nc2ccc(C(=O)NCCCn3ccnc3)cc2nc1-c1ccccc1 [Compound I-264, 2-(2-acetamidophenyl)-N-[3-(1H-imidazol-1-yl)propyl]-3-phenylquinoxaline-6-carboxamide] | – | – | – | 1000 to 2000 nM | 41% | -8% |
| O=C(NCCCn1ccnc1)c1ccc2nc(-c3ccccc3)c(N3CCCC(O)C3)nc2c1 (stereo not drawn) [Compound I-87, 3-(3-hydroxypiperidin-1-yl)-N-[3-(1H-imidazol-1-yl)propyl]-2-phenylquinoxaline-6-carboxamide] | – | – | – | 1000 to 2000 nM | 39% | -7% |
| O=C(NCc1ccc2[nH]ncc2c1)c1ccc2nc(N3CCOCC3)c(-c3ccc(F)cc3)nc2c1 [Compound I-16, 3-(4-fluorophenyl)-N-(1H-indazol-5-ylmethyl)-2-(morpholin-4-yl)quinoxaline-6-carboxamide] | – | – | 39% | 100 to 500 nM | 84% | – |
| Cn1ccc(-c2nc3ccc(C(=O)NCCCn4ccnc4)cc3nc2-c2ccccc2)n1 [Compound I-203, N-[3-(1H-imidazol-1-yl)propyl]-2-(1-methyl-1H-pyrazol-3-yl)-3-phenylquinoxaline-6-carboxamide] | – | – | – | 1000 to 2000 nM | 37% | -8% |
| O=C(NCCCn1ccnc1)c1ccc2nc(-c3ccc4c(c3)CCO4)c(-c3ccccc3)nc2c1 [Compound I-140, 2-(2,3-dihydro-1-benzofuran-5-yl)-N-[3-(1H-imidazol-1-yl)propyl]-3-phenylquinoxaline-6-carboxamide] | – | – | – | 100 to 500 nM | 79% | -8% |
| N#Cc1ccc(F)c(-c2nc3cc(C(=O)NCCCc4ncc[nH]4)ccc3nc2-c2ccc(F)cc2)c1 [Compound I-501, 3-(5-cyano-2-fluorophenyl)-2-(4-fluorophenyl)-N-[3-(1H-imidazol-2-yl)propyl]quinoxaline-6-carboxamide] | 99% | < 100 nM | 2% | – | – | – |
| CC(C)Oc1nc2ccc(C(=O)NCCCc3cn[nH]c3)cc2nc1-c1ccc(F)cc1 [Compound I-380, 3-(4-Fluorophenyl)-2-isopropoxy-N-[3-(1H-pyrazol-4-yl)propyl]quinoxaline-6-carboxamide] | – | – | 2% | 500 to 1000 nM | 55% | – |
| O=C(NCCCc1ncc[nH]1)c1ccc2nc(-c3ccc(Cl)s3)c(-c3ccc(F)cc3)nc2c1 [Compound I-483, 2-(5-chloro-2-thienyl)-3-(4-fluorophenyl)-N-[3-(1H-imidazol-2-yl)propyl]quinoxaline-6-carboxamide] | 77% | 100 to 500 nM | 2% | – | – | – |
| O=C(NCCCc1ncc[nH]1)c1ccc2nc(-c3ccc(F)cc3)c(-c3ccc4nccn4c3)nc2c1 [Compound I-417, 2-(4-fluorophenyl)-N-[3-(1H-imidazol-2-yl)propyl]-3-(imidazo[1,2-a]pyridin-6-yl)quinoxaline-6-carboxamide] | 81% | 100 to 500 nM | 2% | – | – | – |
| CC(C)Oc1nc2ccc(C(=O)NCCCc3ncc[nH]3)cc2nc1-c1ccc(F)c(F)c1 [Compound I-339, 3-(3,4-difluorophenyl)-N-[3-(1H-imidazol-2-yl)propyl]-2-isopropoxyquinoxaline-6-carboxamide] | – | – | 1% | < 100 nM | 91% | – |
| COc1ccc(Cl)c(-c2nc3cc(C(=O)NCCCc4ncc[nH]4)ccc3nc2-c2ccc(F)cc2)c1 [Compound I-354, 3-(2-chloro-5-methoxyphenyl)-2-(4-fluorophenyl)-N-[3-(1H-imidazol-2-yl)propyl]quinoxaline-6-carboxamide] | – | – | 2% | < 100 nM | 97% | – |
| O=C(NCCCc1ncc[nH]1)c1ccc2nc(-c3ccc(F)cc3)c(-c3cc(Cl)ccc3Cl)nc2c1 [Compound I-353, 3-(2,5-dichlorophenyl)-2-(4-fluorophenyl)-N-[3-(1H-imidazol-2-yl)propyl]quinoxaline-6-carboxamide] | – | – | 2% | < 100 nM | 97% | – |
| O=C(c1ccc2nc(-c3ccc(F)cc3)c(-c3ccc(F)cc3)nc2c1)N1CCc2[nH]nc(O)c2C1 [Compound I-285, [2,3-bis(4-fluorophenyl)quinoxalin-6-yl](3-hydroxy-1,4,6,7-tetrahydro-5H-pyrazolo[4,3-c]pyridin-5-yl)methanone] | – | – | – | 2000 to 10000 nM | 7% | 97% |
| O=C(NCCCn1ccnc1)c1ccc2nc(-c3ccc4cc[nH]c4c3)c(-c3ccccc3)nc2c1 [Compound I-208, N-[3-(1H-imidazol-1-yl)propyl]-2-(1H-indol-6-yl)-3-phenylquinoxaline-6-carboxamide] | – | – | – | 500 to 1000 nM | 55% | -6% |
| O=C(NCCCc1ncc[nH]1)c1ccc2nc(OC3CCCNC3)c(-c3ccc(F)cc3)nc2c1 (stereo not drawn) [Compound I-430, 3-(4-fluorophenyl)-N-[3-(1H-imidazol-2-yl)propyl]-2-(piperidin-3-yloxy)quinoxaline-6-carboxamide] | 98% | < 100 nM | 3% | – | – | – |
| O=C(NCCCc1ncc[nH]1)c1ccc2nc(OCCc3cn[nH]c3)c(-c3ccc(F)cc3)nc2c1 [Compound I-442, 3-(4-fluorophenyl)-N-[3-(1H-imidazol-2-yl)propyl]-2-[2-(1H-pyrazol-4-yl)ethoxy]quinoxaline-6-carboxamide] | > 99% | < 100 nM | 3% | – | – | – |
| O=C(NCCCc1nccs1)c1ccc2nc(N3CCC(O)CC3)c(-c3ccc(F)cc3)nc2c1 [Compound I-77, 3-(4-Fluorophenyl)-2-(4-hydroxypiperidin-1-yl)-N-[3-(1,3-thiazol-2-yl)propyl]quinoxaline-6-carboxamide] | – | – | > 99% | 100 to 500 nM | 86% | – |
| CS(=O)(=O)c1cccc(-c2nc3ccc(C(=O)NCCCn4ccnc4)cc3nc2-c2ccccc2)c1 [Compound I-182, N-[3-(1H-imidazol-1-yl)propyl]-2-[3-(methylsulfonyl)phenyl]-3-phenylquinoxaline-6-carboxamide] | – | – | – | 100 to 500 nM | 83% | -7% |
| CN(C)c1nc2ccc(C(=O)NCCc3cncn3C)cc2nc1-c1ccc(F)cc1 [Compound I-58, 2-(dimethylamino)-3-(4-fluorophenyl)-N-[2-(1-methyl-1H-imidazol-5-yl)ethyl]quinoxaline-6-carboxamide] | – | – | 50% | 500 to 1000 nM | 64% | – |
| O=C(NCCCc1ncc[nH]1)c1ccc2nc(N3CCCCC3)c(-c3ccc(Cl)cc3)nc2c1 [Compound I-198, 3-(4-chlorophenyl)-N-[3-(1H-imidazol-2-yl)propyl]-2-(piperidin-1-yl)quinoxaline-6-carboxamide] | – | – | 3% | < 100 nM | > 99% | – |
| Cc1nc(C)c(-c2nc3ccc(C(=O)NCCCn4ccnc4)cc3nc2-c2ccccc2)s1 [Compound I-24, 2-(2,4-dimethyl-1,3-thiazol-5-yl)-N-[3-(1H-imidazol-1-yl)propyl]-3-phenylquinoxaline-6-carboxamide] | – | – | – | 100 to 500 nM | 88% | -8% |
| N#Cc1cccc(-c2nc3cc(C(=O)NCCCn4ccnc4)ccc3nc2-c2ccccc2)c1 [Compound I-157, 3-(3-cyanophenyl)-N-[3-(1H-imidazol-1-yl)propyl]-2-phenylquinoxaline-6-carboxamide] | – | – | – | 1000 to 2000 nM | 40% | 2% |
